In ChEMBL document CHEMBL1275421, “Reduced Candida glabrata susceptibility secondary to an FKS1 mutation developed during candidemia treatment” (2008) one finds MIC data, which are given here for six compounds.

In brackets after ≈: the same amount, converted by molar mass. *1 amine or outer side, *2 acyl side, *3 side chain or, on linkers, in order; H or OH if unused. Where a SMILES comes first, the peptide text is derived from it. Bridges are numbered along the chain shown (N, C = ends). [ ]: non-standard residue; d: D form. The star is where a group is joined. hTyr(3S-OH,4S-OH,3'-OSO3H) = N[C@H](C(=O)O)[C@H](O)[C@@H](O)c1ccc(O)c(OS(=O)(=O)O)c1; pTerphenylCO(4''-OnC5H11) = CCCCCOc1ccc(-c2ccc(-c3ccc(C(=O)*)cc3)cc2)cc1; Orn(4R-OH,5R-OH) = O=C([C@H](C[C@@H](O)[C@@H](O)N[*:3])N[*:1])[*:2]; hTyr(3S-OH,4S-OH) = N[C@H](C(=O)O)[C@H](O)[C@@H](O)c1ccc(O)cc1; Pro(3S-OH,4S-Me) = C[C@H]1CN[C@H](C(=O)O)[C@H]1O; X1 = CCCCCOc1ccc(-c2cc(-c3ccc(C(=O)*)cc3)no2)cc1; Gln(3R-OH) = NC(=O)C[C@@H](O)[C@H](N)C(=O)O; Hyp = O=C(O)[C@@H]1C[C@@H](O)CN1 Bounds are passed on as bounds.

What is called MIC is the smallest concentration in the dilution series that meets the test's criterion for growth inhibition. Low readings indicate a more susceptible organism, high ones a less susceptible organism.

What all share (format): functional
Experiment [1] has as its system Nakaseomyces glabratus. The experiment can be described thus: Antifungal activity against Candida glabrata 06-3168 obtained from patient on compound therapy by M27-A2 method.
The subject of experiment [2] is Nakaseomyces glabratus. Kind of experiment: Antifungal activity against Candida glabrata 06-3170 harboring […] T1896G and D632E mutant obtained from patient on compound therapy by M27-A2 method.
Experiment [3] has as its system Nakaseomyces glabratus. The experiment can be described thus: Antifungal activity against Candida glabrata 06-3169 harboring […] T1896G and D632E mutant obtained from patient on compound therapy by M27-A2 method.
Experiment [4] relates to Pichia kudriavzevii. The experiment can be described thus: Antifungal activity against Candida krusei obtained from patient with acute myeloid leukemia.

Regarding `C[C@@H]1[C@H](O)[C@@H](C)/C=C/C=C/C=C/C=C/C=C/C=C/C=C/[C@H](O[C@@H]2O[C@H](C)[C@@H](O)[C@H](N)[C@@H]2O)C[C@@H]2O[C@](O)(C[C@@H](O)C[C@@H](O)[C@H](O)CC[C@@H](O)C[C@@H](O)CC(=O)O[C@H]1C)C[C@H](O)[C@H]2C(=O)O` [AMPHOTERICIN B], the MIC in experiment [1], in experiment [2] and in experiment [3] was 0.125 µg/mL (≈ 0.135 µM) throughout.

With `CCCCCOc1ccc(-c2ccc(-c3ccc(C(=O)N[C@H]4C[C@@H](O)[C@@H](O)NC(=O)[C@@H]5[C@@H](O)[C@@H](C)CN5C(=O)[C@H]([C@@H](C)O)NC(=O)[C@H]([C@H](O)[C@@H](O)c5ccc(O)cc5)NC(=O)[C@@H]5C[C@@H](O)CN5C(=O)[C@H]([C@@H](C)O)NC4=O)cc3)cc2)cc1` [ANIDULAFUNGIN] ({pTerphenylCO(4''-OnC5H11)}-[Orn(4R-OH,5R-OH)]T[Hyp][hTyr(3S-OH,4S-OH)]T[Pro(3S-OH,4S-Me)]; lactam 1-C), the MIC was 0.03 µg/mL (≈ 0.0263 µM) in experiment [1], greater than 2 µg/mL in experiment [2] and greater than 2 µg/mL in experiment [3].

`CC[C@H](C)C[C@H](C)CCCCCCCCC(=O)N[C@H]1C[C@@H](O)[C@@H](NCCN)NC(=O)[C@@H]2[C@@H](O)CCN2C(=O)[C@H]([C@H](O)CCN)NC(=O)[C@H]([C@H](O)[C@@H](O)c2ccc(O)cc2)NC(=O)[C@@H]2C[C@@H](O)CN2C(=O)[C@H]([C@@H](C)O)NC1=O` [CASPOFUNGIN]: the MIC in experiment [4] is 2 µg/mL (≈ 1.83 µM); in experiment [1], 0.06 µg/mL (≈ 0.0549 µM); in experiment [2] it was greater than 2 µg/mL; in experiment [3] it was greater than 2 µg/mL.

For `OC(Cn1cncn1)(Cn1cncn1)c1ccc(F)cc1F` [FLUCONAZOLE], the MIC in experiment [1], in experiment [2] and in experiment [3] was 1 µg/mL (≈ 3.27 µM) each time.

Turning to `CCCCCOc1ccc(-c2cc(-c3ccc(C(=O)N[C@H]4C[C@@H](O)[C@@H](O)NC(=O)[C@@H]5[C@@H](O)[C@@H](C)CN5C(=O)[C@H]([C@H](O)CC(N)=O)NC(=O)[C@H]([C@H](O)[C@@H](O)c5ccc(O)c(OS(=O)(=O)O)c5)NC(=O)[C@@H]5C[C@@H](O)CN5C(=O)[C@H]([C@@H](C)O)NC4=O)cc3)no2)cc1` [MICAFUNGIN] (X1-[Orn(4R-OH,5R-OH)]T[Hyp][hTyr(3S-OH,4S-OH,3'-OSO3H)][Gln(3R-OH)][Pro(3S-OH,4S-Me)]; lactam 1-C), the MIC was 0.06 µg/mL (≈ 0.0472 µM) in experiment [1], greater than 2 µg/mL in experiment [2] and greater than 2 µg/mL in experiment [3].

On to `C[C@@H](c1ncncc1F)[C@](O)(Cn1cncn1)c1ccc(F)cc1F` [VORICONAZOLE], for which the MIC in experiment [1], in experiment [2] and in experiment [3] was 0.03 µg/mL (≈ 0.0859 µM) in each case.
